Source: PMC5053523, “In Vitro Antibacterial Activity of Rhodanine Derivatives against Pathogenic Clinical Isolates” (PLoS ONE, 2016)
In brackets after ≈: the same amount, converted by molar mass. Where two headings read alike, the source gives them in different places.

How the values were obtained:
Format in all cases: cell-based
[1] = system: Vancomycin Resistant Staphylococcus aureus (VRSA); experiment: Broth microdilution MIC/MBC, VRSA; conditions: for MBC / MIC: VRSA
[2] = system: Escherichia coli O157:H7; experiment: MIC with/without sub-MIC colistin, Escherichia coli O157:H7
How it was run: (§1)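 Rhodanines and control antibiotics are tested for MIC against Gram-negative bacteria while a sub-inhibitory level of colistin or PMBN is present. A strain of E. coli lacking the AcrAB efflux pump (SM1411ΔacrAB) serves as an additional test organism.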

[3] = system: Klebsiella pneumoniae; experiment: MIC with/without PMBN, Klebsiella pneumoniae
How it was run: as §1

[4] = system: K. pneumoniae; experiment: Broth microdilution MIC, K. pneumoniae
[5] = system: vancomycin resistant enterococci (VRE) E. faecium; experiment: Broth microdilution MIC/MBC, VRE E. faecium; conditions: for MIC: read-out: MIC
[6] = system: vancomycin resistant enterococci (VRE) E. faecalis; experiment: Broth microdilution MIC/MBC, VRE E. faecalis; conditions: for MIC: read-out: MIC
[7] = system: Acinetobacter baumannii; experiment: MIC with/without PMBN, Acinetobacter baumannii
How it was run: as §1

[8] = system: Candida albicans; experiment: MIC against Candida albicans; conditions: table prints none, read-out: MIC
[9] = system: methicillin-resistant Staphylococcus aureus (MRSA); experiment: Broth microdilution MIC/MBC, MRSA
[10] = system: Bacillus anthracis; experiment: microbe, parasite or virus in culture
[11] = E. faecium HM 968 Strain ERV102
[12] = E. faecium NR31914 Strain E0120
[13] = E. faecium Patient #1–1 NR-31903
[14] = E. faecalis NR31972 Strain SF 28073

Structure (SMILES): O=C(O)[C@H](Cc1ccccc1)N1C(=O)/C(=C/c2cccc(-c3ccccc3)c2)SC1=S [Rh 5]
- MIC50 ([1]; 15 VRSA strains, read-out: MIC 50): 8 µM (≈ 3.56 µg/mL)
- MIC90 ([1]; 15 VRSA strains, read-out: MIC 90): 8 µM (≈ 3.56 µg/mL)
- MBC ([1]; VRSA 1, read-out: MBC): 16 µM (≈ 7.13 µg/mL)
- MIC ([1]; VRSA 1, read-out: MIC): 8 µM (≈ 3.56 µg/mL)
- MBC ([1]; VRSA 2, read-out: MBC): 8 µM (≈ 3.56 µg/mL)
- MIC ([1]; VRSA 2, read-out: MIC): 8 µM (≈ 3.56 µg/mL)
- MBC ([1]; VRSA 3a, read-out: MBC): 16 µM (≈ 7.13 µg/mL)
- MIC ([1]; VRSA 3a, read-out: MIC): 8 µM (≈ 3.56 µg/mL)
- MBC ([1]; VRSA 3b, read-out: MBC): 16 µM (≈ 7.13 µg/mL)
- MIC ([1]; VRSA 3b, read-out: MIC): 8 µM (≈ 3.56 µg/mL)
- MBC ([1]; VRSA 4, read-out: MBC): 16 µM (≈ 7.13 µg/mL)
- MIC ([1]; VRSA 4, read-out: MIC): 8 µM (≈ 3.56 µg/mL)
- MBC ([1]; VRSA 5, read-out: MBC): 16 µM (≈ 7.13 µg/mL)
- MIC ([1]; VRSA 5, read-out: MIC): 8 µM (≈ 3.56 µg/mL)
- MBC ([1]; VRSA 6, read-out: MBC): 16 µM (≈ 7.13 µg/mL)
- MIC ([1]; VRSA 6, read-out: MIC): 8 µM (≈ 3.56 µg/mL)
- MBC ([1]; VRSA 7, read-out: MBC): 32 µM (≈ 14.3 µg/mL)
- MIC ([1]; VRSA 7, read-out: MIC): 8 µM (≈ 3.56 µg/mL)
- MBC ([1]; VRSA 8, read-out: MBC): 16 µM (≈ 7.13 µg/mL)
- MIC ([1]; VRSA 8, read-out: MIC): 8 µM (≈ 3.56 µg/mL)
- MBC ([1]; VRSA 9, read-out: MBC): 16 µM (≈ 7.13 µg/mL)
- MIC ([1]; VRSA 9, read-out: MIC): 16 µM (≈ 7.13 µg/mL)
- MBC ([1]; VRSA 10, read-out: MBC): 16 µM (≈ 7.13 µg/mL)
- MIC ([1]; VRSA 10, read-out: MIC): 8 µM (≈ 3.56 µg/mL)
- MBC ([1]; VRSA 11a, read-out: MBC): 16 µM (≈ 7.13 µg/mL)
- MIC ([1]; VRSA 11a, read-out: MIC): 8 µM (≈ 3.56 µg/mL)
- MBC ([1]; VRSA 11b, read-out: MBC): 16 µM (≈ 7.13 µg/mL)
- MIC ([1]; VRSA 11b, read-out: MIC): 8 µM (≈ 3.56 µg/mL)
- MBC ([1]; VRSA 12, read-out: MBC): 16 µM (≈ 7.13 µg/mL)
- MIC ([1]; VRSA 12, read-out: MIC): 8 µM (≈ 3.56 µg/mL)
- MBC ([1]; VRSA 13, read-out: MBC): 16 µM (≈ 7.13 µg/mL)
- MIC ([1]; VRSA 13, read-out: MIC): 8 µM (≈ 3.56 µg/mL)
- MIC ([2]; Escherichia coli O157:H7 ATCC 35150, colistin (+) […], read-out: MIC): >64 µM
- MIC ([2]; Escherichia coli O157:H7 ATCC 700728, colistin (+) […], read-out: MIC): >64 µM
- MIC ([2]; Escherichia coli, ATCC35150): > 128 µM
- MIC ([2]; Escherichia coli, ATCC700728): > 128 µM
- MIC ([3]; Klebsiella pneumoniae ATCC BAA 1706, PMBN (+) 4 μg/mL): >64 µM
- MIC ([3]; Klebsiella pneumoniae ATCC BAA 2146, PMBN (+) 4 μg/mL): >64 µM
- MIC ([3]; Klebsiella pneumoniae, BAA1706): > 128 µM
- MIC ([3]; Klebsiella pneumoniae, BAA2146): > 128 µM
- MIC ([4]; K. pneumoniae NR-15417): >128 µM
- MIC ([4]; Klebsiella pneumoniae): > 128 µM
- MBC ([5]; E. faecium E417 HM-965): > 64 µM
- MIC ([5]; E. faecium E417 HM-965): 8 µM (≈ 3.56 µg/mL)
- MBC ([5]; E. faecium E1071 NR-28978): > 64 µM
- MIC ([5]; E. faecium E1071 NR-28978): 16 µM (≈ 7.13 µg/mL)
- MBC [5, 11]: 64 µM (≈ 28.5 µg/mL)
- MIC [5, 11]: 16 µM (≈ 7.13 µg/mL)
- MBC [5, 12]: > 64 µM
- MIC [5, 12]: 16 µM (≈ 7.13 µg/mL)
- MBC [5, 13]: 64 µM (≈ 28.5 µg/mL)
- MIC [5, 13]: 8 µM (≈ 3.56 µg/mL)
- MBC ([6]; E. faecalis ERV103 HM-934): 16 µM (≈ 7.13 µg/mL)
- MIC ([6]; E. faecalis ERV103 HM-934): 16 µM (≈ 7.13 µg/mL)
- MBC [6, 14]: 16 µM (≈ 7.13 µg/mL)
- MIC [6, 14]: 16 µM (≈ 7.13 µg/mL)
- MBC ([6]; E. faecalis R712 HM-335): 16 µM (≈ 7.13 µg/mL)
- MIC ([6]; E. faecalis R712 HM-335): 8 µM (≈ 3.56 µg/mL)
- MBC ([6]; E. faecalis S613 HM-334): 16 µM (≈ 7.13 µg/mL)
- MIC ([6]; E. faecalis S613 HM-334): 16 µM (≈ 7.13 µg/mL)
- MBC ([6]; E. faecalis TX0104 HM-201): 16 µM (≈ 7.13 µg/mL)
- MIC ([6]; E. faecalis TX0104 HM-201): 16 µM (≈ 7.13 µg/mL)
- MIC ([7]; Acinetobacter baumannii ATCC BAA747, PMBN (+) 4 μg/mL, read-out: MIC): >64 µM
- MIC ([7]; Acinetobacter baumannii ATCC BAA19606, PMBN (+) 4 μg/mL, read-out: MIC): >64 µM
- MIC ([7]; Acinetobacter baumannii, ATCCBAA747): > 128 µM
- MIC ([7]; Acinetobacter baumannii, ATCCBAA19606): > 128 µM
- MIC ([8]; ATCC10231, C. albicans ATCC 10231, unit from abstract): > 64 µM
- MIC ([8]; C. albicans NR 29434, unit from abstract): > 64 µM
- MIC ([8]; C. albicans NR 29435, unit from abstract): > 64 µM
- MIC ([8]; C. albicans NR29437, unit from abstract): > 64 µM
- MIC ([8]; C. albicans NR29438, unit from abstract): > 64 µM
- MIC ([8]; C. albicans NR 29446, unit from abstract): > 64 µM
- MIC ([8]; C. albicans NR 29448, unit from abstract): > 64 µM
- MIC ([8]; C. albicans NR 29449, unit from abstract): > 64 µM
- MIC ([8]; C. albicans NR 29453, unit from abstract): > 64 µM
- MIC ([8]; C. albicans NR 294436, unit from abstract): > 64 µM
- MIC50 ([9]; 11 MRSA strains): 8 µM (≈ 3.56 µg/mL)
- MIC90 ([9]; 11 MRSA strains): 16 µM (≈ 7.13 µg/mL)
- MBC ([9]; MRSA NRS 1): 16 µM (≈ 7.13 µg/mL)
- MIC ([9]; MRSA NRS 1): 8 µM (≈ 3.56 µg/mL)
- MBC ([9]; MRSA NRS 19): 16 µM (≈ 7.13 µg/mL)
- MIC ([9]; MRSA NRS 19): 8 µM (≈ 3.56 µg/mL)
- MBC ([9]; MRSA NRS 37): 16 µM (≈ 7.13 µg/mL)
- MIC ([9]; MRSA NRS 37): 16 µM (≈ 7.13 µg/mL)
- MBC ([9]; MRSA NRS 107): 16 µM (≈ 7.13 µg/mL)
- MIC ([9]; MRSA NRS 107): 16 µM (≈ 7.13 µg/mL)
- MBC ([9]; MRSA NRS 119): 8 µM (≈ 3.56 µg/mL)
- MIC ([9]; MRSA NRS 119): 8 µM (≈ 3.56 µg/mL)
- MBC ([9]; MRSA NRS 382): 8 µM (≈ 3.56 µg/mL)
- MIC ([9]; MRSA NRS 382): 8 µM (≈ 3.56 µg/mL)
- MBC ([9]; MRSA NRS 383): 16 µM (≈ 7.13 µg/mL)
- MIC ([9]; MRSA NRS 383): 16 µM (≈ 7.13 µg/mL)
- MBC ([9]; MRSA NRS 384): 64 µM (≈ 28.5 µg/mL)
- MIC ([9]; MRSA NRS 384): 8 µM (≈ 3.56 µg/mL)
- MBC ([9]; MRSA NRS 385): 16 µM (≈ 7.13 µg/mL)
- MIC ([9]; MRSA NRS 385): 8 µM (≈ 3.56 µg/mL)
- MBC ([9]; MRSA NRS 386): 64 µM (≈ 28.5 µg/mL)
- MIC ([9]; MRSA NRS 386): 8 µM (≈ 3.56 µg/mL)
- MBC ([9]; MRSA NRS 387): 8 µM (≈ 3.56 µg/mL)
- MIC ([9]; MRSA NRS 387): 8 µM (≈ 3.56 µg/mL)
- MBC ([10]; Bacillus anthracis AMES35): 2 µM (≈ 0.891 µg/mL)
- MIC ([10]; Bacillus anthracis AMES35): 2 µM (≈ 0.891 µg/mL)
- MBC ([10]; Bacillus anthracis UM23): 2 µM (≈ 0.891 µg/mL)
- MIC ([10]; Bacillus anthracis UM23): 2 µM (≈ 0.891 µg/mL)
- MBC ([10]; Bacillus anthracis Weybridge): 4 µM (≈ 1.78 µg/mL)
- MIC ([10]; Bacillus anthracis Weybridge): 2 µM (≈ 0.891 µg/mL)
